Measured values: patent US11154515B2, “Pharmaceutical compositions comprising cannabidiol and beta-caryophyllene and methods for their use” (priority 2017, dated 2021)
Where “and” joins values, the source holds several entries; their conditions need not be identical. Identical values can stand only once.

Assays:
[1] = system: IL-1β gene expression; assay: IL-1β gene expression (RT-qPCR) in LPS-stimulated RAW 264.7 macrophages; type: cell-based, murine; conditions: for reduction of LPS-induced expression of IL-1β vs untreated, LPS-stimulated controls (FIG. 3B): CBD 0.1 μM, BCP 0.013 μM (p<0.01), combination 0.1 μM + 0.013 μM (7.7:1, p<0.001)
Experimental: (§1) RAW 264.7 cells were cultured in Dulbecco's Modified Eagle's Medium (high glucose DMEM, Sigma-Aldrich) supplemented with 10% fetal bovine serum (FBS), 1% L-glutamine, 1% Sodium-pyruvate, 1% Penicillin-Streptomycin (culture medium). The cells were maintained in T75 flasks at 37° C. in humidified air containing 5% CO2 in an incubator and passaged every second-third day.
(§2) For drug treatment and LPS stimulation, 200,000 cells/well were seeded in 1.5 mL culture medium in a 6-well plate and incubated to allow attachment to the cell culture plate. After attachment, cells were incubated with various concentrations of CBD (0.1 μM, 0.3 μM, 1 μM, 3 μM, 5 μM, 10 μM, and 30 μM) or BCP (0.001 μM, 0.01 μM, 0.013 μM, 0.1 μM, 0.3 μM, 1 μM, 3 μM, 5 μM, 10 μM, and 100 μM), or vehicle (control) for 2 hrs. After the 2 h incubation, 0.1 μg/mL LPS was added to each well to induce inflammation and cells were incubated with LPS for 24 hrs.
(§3) After the 24 h incubation with LPS, the cells were harvested and gene expression of the pro-inflammatory cytokines interleukin (IL)-1α, IL-1β were measured by quantitative real-time polymerase chain reaction (RT-qPCR) on a Roche Light Cycler 480 QPCR System (Roche Applied Sciences) using the 5′ nuclease assay. Total RNA was isolated using TRIzol (LifeTechnologies), DNase treatment was performed according to the manufacturer's protocol, and then 1 μg of total RNA was reverse-transcribed into cDNA using High Capacity cDNA Kit from Life Technologies Corporation. PCR amplification was performed using the TaqMan primers and probes (assay IDs: Mm00439620_m1 for murine Il1a; Mm00434228_m1 for murine Il1b, Mm00446190_m1 for murine 116, Mm00441263_m1 for murine Cxcl15/Il8). Expression of the housekeeping gene, Gapdh, was used (assay ID: […]) as an internal control. The amount of the transcripts was normalized to those of the housekeeping gene using the ΔCT method. Results are expressed as % decrease in the expression levels of IL1α and IL1β in drug-treated, LPS-stimulated groups compared to the expression of each cytokine gene in the vehicle-treated, LPS-stimulated group (regarded as 100%). All experiments were repeated 2-3 times.
(§4) For statistical analysis, data were analyzed and graphs were plotted using Origin Pro Plus 6.0 software (Microcal, Northampton, Mass., USA) and Student's two-tailed two samples t-test. p<0.05 values were regarded as significant differences.

[2] = system: male NMRI mice, mechanonociceptive threshold of the hind paws; assay: Carrageenan-induced mechanical hyperalgesia, mechanonociceptive threshold by dynamic plantar aesthesiometry; type: in vivo, mouse; conditions: for effect on mechanonociceptive threshold when applied alone: CBD 1 mg/kg, BCP 10 mg/kg; for suppression of the mechanonociceptive threshold by carrageenan: most CBD and BCP single pre-treatments, three hours after carrageenan; for basal mechanonociceptive threshold vs vehicle-treated mice: single doses i.p. (CBD 0.5, 1, 10, 30 mg/kg; BCP 1, 5, 10, 30 mg/kg), 30 min after administration; for carrageenan-induced drop of the mechanonociceptive threshold: 3 hours after carrageenan
Experimental: (§5) CBD and BCP solutions (≥80%, FCC, FG) were dissolved in a solution containing 10% Tween 80 and 90% saline (vehicle) and were freshly prepared immediately before use. Mice were treated with drug solutions or vehicle control by intraperitoneal (i.p.) injection at a volume of 0.1 mL/10 g body weight. Acute paw injury was induced by intraplantar injection of 20 μL 3% carrageenan (dissolved in 0.9% NaCl, Sigma Aldrich, St. Louis, Mo., USA) into the right hind paw.
(§6) Experiments were performed on 7-16-week-old male NMRI mice (30-50 g) provided with standard chow and water ad libitum. Mice were divided into groups and treated with a single dose of vehicle control (VEH), CBD, BCP, or CBD+BCP delivered i.p. 30 minutes after drug administration, measurements were taken to determine baseline values for mechanonociceptive thresholds and paw volumes. 35 minutes after drug administration, 20 μL of 3% carrageenan was injected intraplantarly (i.pl.) in the right hind paws. 3 hours after carrageenan administration, additional measurements were taken to determine the mechanonociceptive thresholds and paw volumes of the ipsilateral and contralateral paws.
The mechanonociceptive threshold of the hind paws were measured by dynamic plantar aesthesiometry (DPA, Ugo Basile 37400, Comerio, Italy). Mice were placed into plexiglass boxes with a wire grid floor. After acclimation, the plantar surface was touched with a straight metal filament, lifting with increasing upward force (until the animal withdrew his paw or until the maximum force of 10 g was reached (maximum force of 10 g reached within 4 s). Mechanonociceptive thresholds are expressed in gram (g), while mechanical hyperalgesia is represented as a percentage decrease from the initial withdrawal thresholds (i.e., before drug and carrageenan administration) (Bolcskei K. et al., Pain. 2005; 117:368-76).

[3] = system: IL-1α gene expression; assay: IL-1α gene expression (RT-qPCR) in LPS-stimulated RAW 264.7 macrophages; type: cell-based, murine; conditions: for reduction of LPS-induced expression of IL-1α vs untreated, LPS-stimulated controls (FIG. 3A): CBD 0.1 μM, BCP 0.013 μM (p<0.001), combination 0.1 μM + 0.013 μM (7.7:1, p<0.001); for % decrease in IL1α expression: Table 3A experiment; for % Inhibition Alone, IL-1α gene expression: Table 3B/6 experiment
Experimental: as §1, §2, §3, §4

[4] = system: male NMRI mice, carrageenan-induced paw edema; assay: Carrageenan-induced paw edema, plethysmometry; type: in vivo, mouse; conditions: for basal paw volume vs vehicle-treated mice: single doses i.p. (CBD 0.5, 1, 10, 30 mg/kg; BCP 1, 5, 10, 30 mg/kg), 30 min after administration
Experimental: as §5, §6
Baseline and post-carrageenan injection paw volume was determined by plethysmometry (Ugo Basile Plethysmometer 7140, Comerio, Italy) and expressed in cubic centimeter (cm^3). Paw edema was presented as percentage increase of baseline values obtained prior to carrageenan administration (Bolcskei K. et al., Pain. 2005; 117:368-76).

[5] = Table 3A experiment, single agent 0.1 μM
[6] = Table 3A experiment, single agent 1 μM
[7] = Table 3A experiment, single agent 5 μM
[8] = Table 3A experiment, single agent 10 μM
[9] = Table 3B experiment, single agent 0.1 μM
[10] = Table 3B experiment, single agent 0.3 μM
[11] = Table 3B experiment, single agent 1.0 μM
[12] = Table 3B experiment, single agent 3.0 μM
[13] = Table 3B experiment, single agent 10 μM
[14] = Table 4 Exp. 1: CBD 0.1 μM, BCP 0.013 μM, CBD + BCP 0.1 μM + 0.013 μM
[15] = Table 4 Exp. 2: CBD 1 μM, BCP 0.13 μM, CBD + BCP 1 μM + 0.13 μM
[16] = most CBD and BCP single dose pre-treatments, three hours after i.pl. carrageenan

## C=C1CC/C=C(\C)CC[C@H]2[C@H]1CC2(C)C [BCP, (E)-beta-caryophyllene]
[1]; 0.001 μM BCP alone
  % Inhibition BCP Alone (IL-1β gene expression): 0%
[1]; 0.01 μM BCP alone
  % Inhibition BCP Alone (IL-1β gene expression): 0%
[1]; 0.1 μM BCP alone
  % Inhibition BCP Alone (IL-1β gene expression): 1.8 ± 0.2%
[1]; 0.3 μM BCP alone
  % Inhibition BCP Alone (IL-1β gene expression): 5.8 ± 1.2%
[1]; 1 μM BCP alone
  % Inhibition BCP Alone (IL-1β gene expression): 0%
[1]; 3 μM BCP alone
  % Inhibition BCP Alone (IL-1β gene expression): 0%
[1]; 10 μM BCP alone
  % Inhibition BCP Alone (IL-1β gene expression): 8.2 ± 4.1%
[1]; 100 μM BCP alone, * indicates possibly cytotoxicity
  % Inhibition BCP Alone (IL-1β gene expression): *94.2 ± 11.3%
[1]
  reduction of LPS-induced expression of IL-1β vs untreated, LPS-stimulated controls (FIG. 3B): did significantly reduce
[1]; [5]
  % decrease in IL1β expression: 11%
[1]; [6]
  % decrease in IL1β expression: 19%
[1]; [7]
  % decrease in IL1β expression: 62%
[1]; [8]
  % decrease in IL1β expression: 7%
[1]; Table 3B experiment, single agent 0.001 μM
  % decrease in IL1β expression: 0%
[1]; Table 3B experiment, single agent 0.01 μM
  % decrease in IL1β expression: 0%
[1]; [9]
  % decrease in IL1β expression: 1.8 ± 0.2%
[1]; [10]
  % decrease in IL1β expression: 5.8 ± 1.2%
[1]; [11]
  % decrease in IL1β expression: 0%
[1]; [12]
  % decrease in IL1β expression: 0%
[1]; [13]
  % decrease in IL1β expression: 8.2 ± 4.1%
[1]; Table 3B experiment, single agent 100 μM
  % decrease in IL1β expression: 94.2 ± 11.3%
[1]; [14]
  % decrease in IL-1β gene expression: 34%
[1]; [15]
  % decrease in IL-1β gene expression: 0%
[2]; 30 mg/kg i.p., vs vehicle, p<0.001
  carrageenan-induced mechanical hyperalgesia: significantly reduced
[2]
  effect on mechanonociceptive threshold when applied alone: negligible effects
  suppression of the mechanonociceptive threshold by carrageenan: only mildly influenced
  basal mechanonociceptive threshold vs vehicle-treated mice: none of the investigated single doses of CBD and BCP influenced the basal mechanonociceptive threshold
[3]
  reduction of LPS-induced expression of IL-1α vs untreated, LPS-stimulated controls (FIG. 3A): did significantly reduce
[3]; IL-1α and IL-1β gene expression
  anti-inflammatory actions when applied alone: only minor (if any) anti-inflammatory actions
[3]; single agent 0.1 μM
  % decrease in IL1α expression: 2%
  % Inhibition Alone, IL-1α gene expression: 1.8 ± 0.2%
[3]; single agent 1 μM
  % decrease in IL1α expression: 18%
  % Inhibition Alone, IL-1α gene expression: 0%
[3]; single agent 5 μM
  % decrease in IL1α expression: 26%
[3]; single agent 10 μM
  % decrease in IL1α expression: 0%
  % Inhibition Alone, IL-1α gene expression: 8.2 ± 4.1%
[3]; single agent 0.001 μM
  % Inhibition Alone, IL-1α gene expression: 0%
[3]; single agent 0.01 μM
  % Inhibition Alone, IL-1α gene expression: 0%
[3]; single agent 0.3 μM
  % Inhibition Alone, IL-1α gene expression: 5.8 ± 1.2%
[3]; single agent 3 μM
  % Inhibition Alone, IL-1α gene expression: 0%
[3]; [14]
  % decrease in IL-1α gene expression: 32%
[3]; [15]
  % decrease in IL-1α gene expression: 0%
[4]; 30 mg/kg i.p., three hours after carrageenan, vehicle 60%, p<0.0001
  carrageenan-induced paw edema: 20%
[4]; [16]
  carrageenan-induced increase of the paw volume: only mildly influenced
[4]
  basal paw volume vs vehicle-treated mice: none of the investigated single doses of CBD or BCP influenced the basal paw volume

## C=C(C)[C@@H]1CCC(C)=C[C@H]1c1c(O)cc(CCCCC)cc1O [CBD, cannabidiol]
[1]; 0.1 μM CBD alone
  % Inhibition CBD Alone (IL-1β gene expression): 5.8 ± 1.4%
[1]; 0.3 μM CBD alone
  % Inhibition CBD Alone (IL-1β gene expression): 9 ± 3.6%
[1]; 1 μM CBD alone
  % Inhibition CBD Alone (IL-1β gene expression): 39.2 ± 10.1%
[1]; 3 μM CBD alone
  % Inhibition CBD Alone (IL-1β gene expression): 85.6 ± 10%
[1]; 10 μM CBD alone
  % Inhibition CBD Alone (IL-1β gene expression): 92.2 ± 8.4%
[1]
  reduction of LPS-induced expression of IL-1β vs untreated, LPS-stimulated controls (FIG. 3B): did not significantly reduce
[1]; [5]
  % decrease in IL1β expression: 19%
[1]; [6]
  % decrease in IL1β expression: 11%
[1]; [7]
  % decrease in IL1β expression: 31%
[1]; [8]
  % decrease in IL1β expression: 33%
[1]; [9]
  % decrease in IL1β expression: 5.8 ± 1.4%
[1]; [10]
  % decrease in IL1β expression: 9 ± 3.6%
[1]; [11]
  % decrease in IL1β expression: 39.2 ± 10.1%
[1]; [12]
  % decrease in IL1β expression: 85.6 ± 10%
[1]; [13]
  % decrease in IL1β expression: 92.2 ± 8.4%
[1]; [14]
  % decrease in IL-1β gene expression: 13%
[1]; [15]
  % decrease in IL-1β gene expression: 55%
[2]; 0.5 mg/kg CBD alone
  carrageenan-induced drop of the mechanonociceptive threshold: not influenced
[2]; 1 mg/kg CBD alone
  carrageenan-induced drop of the mechanonociceptive threshold: not influenced
[2]
  effect on mechanonociceptive threshold when applied alone: negligible effects
  suppression of the mechanonociceptive threshold by carrageenan: only mildly influenced
  basal mechanonociceptive threshold vs vehicle-treated mice: none of the investigated single doses of CBD and BCP influenced the basal mechanonociceptive threshold
[3]
  reduction of LPS-induced expression of IL-1α vs untreated, LPS-stimulated controls (FIG. 3A): did not significantly reduce
[3]; single agent 0.1 μM
  % decrease in IL1α expression: 13%
  % Inhibition Alone, IL-1α gene expression: 0%
[3]; single agent 1 μM
  % decrease in IL1α expression: 4%
  % Inhibition Alone, IL-1α gene expression: 34.5 ± 6.2%
[3]; single agent 5 μM
  % decrease in IL1α expression: 10%
[3]; single agent 10 μM
  % decrease in IL1α expression: 21%
[3]; single agent 0.3 μM
  % Inhibition Alone, IL-1α gene expression: 3.2 ± 0.2%
[3]; single agent 3 μM
  % Inhibition Alone, IL-1α gene expression: 55.5 ± 4.7% and 55.5 ± 47%
[3]; [14]
  % decrease in IL-1α gene expression: 0%
[3]; [15]
  % decrease in IL-1α gene expression: 42%
[3]; applied alone, IL-1α and IL-1β gene expression
  concentrations with marked anti-inflammatory effects: ≥ 1 µM
[4]; 0.5 mg/kg CBD alone, 3 hours after carrageenan
  carrageenan-induced increase of the paw volume: not influenced
[4]; 1 mg/kg CBD alone, 3 hours after carrageenan
  carrageenan-induced increase of the paw volume: not influenced
[4]; [16]
  carrageenan-induced increase of the paw volume: only mildly influenced
[4]
  basal paw volume vs vehicle-treated mice: none of the investigated single doses of CBD or BCP influenced the basal paw volume
